According to ChEMBL document CHEMBL3044789, “Comparing weed and crop seedling response to pre-emergence pendimethalin application in Corchorus olitorius and Abelmoschus esculentus” (Crop Prot, 2006):

Tests used:
Synedrella nodiflora [1] = test: Herbicidal activity against Synedrella nodiflora in Abelmoschus esculentus plots assessed as weed cover at 0.99 kg a.i/ha after 2 weeks (reference value: 63.5 +/- 0.29 %); assay type: functional
Euphorbia heterophylla [2] = test: Herbicidal activity against Euphorbia heterophylla in Abelmoschus esculentus plots assessed as weed cover at 0.66 kg a.i/ha after 7 weeks (reference value: 14.7 +/- 0.46 %); assay type: functional
Corchorus olitorius [3] = test: Phytotoxicity in Corchorus olitorius assessed as crop seedling injury at 0.66 kg a.i/ha after 2 weeks relative to untreated control; assay type: organism-based; conditions: in vivo, 336 h
Euphorbia heterophylla [4] = test: Herbicidal activity against Euphorbia heterophylla in Corchorus olitorius plots assessed as weed cover at 0.66 kg a.i/ha after 4 weeks (reference value: 20.1+/- 0.57 %); assay type: functional
Corchorus olitorius [5] = test: Phytotoxicity in Corchorus olitorius assessed as root length at 0.33 kg a.i/ha treated to soil after 7 weeks (reference value: 16.9 +/- 0.09 mm); assay type: organism-based; conditions: in vivo, other, 1176 h
Corchorus olitorius [6] = test: Phytotoxicity in Corchorus olitorius assessed as seed germination at 0.99 kg a.i/ha applied as solution after 7 weeks relative to untreated control; assay type: organism-based; conditions: in vivo, other, 1176 h
Synedrella nodiflora [7] = test: Herbicidal activity against Synedrella nodiflora in Corchorus olitorius plots assessed as weed cover at 1.32 kg a.i/ha after 4 weeks (reference value: 20.1+/- 0.57 %); assay type: functional
Talinum fruticosum = test: Herbicidal activity against Talinum fruticosum in Corchorus olitorius plots assessed as minor weed growth at 0.99 kg a.i/ha after 2 weeks; assay type: functional
Commelina diffusa [8] = test: Herbicidal activity against Commelina diffusa in Corchorus olitorius plots assessed as weed recovery at 0.66 kg a.i/ha after 2 weeks (reference value: 78.3 +/- 0.74 %); assay type: functional
Chromolaena odorata [9] = test: Herbicidal activity against Chromolaena odorata in Corchorus olitorius plots assessed as weed cover at 0.33 kg a.i/ha after 7 weeks (reference value: 1.7 +/- 0.56 %); assay type: functional
Synedrella nodiflora [10] = test: Herbicidal activity against Synedrella nodiflora in Corchorus olitorius plots assessed as weed cover at 0.99 kg a.i/ha after 7 weeks (reference value: 1.7 +/- 0.56 %); assay type: functional
Chromolaena odorata [11] = test: Herbicidal activity against Chromolaena odorata in Corchorus olitorius plots assessed as weed cover at 0.99 kg a.i/ha after 2 weeks (reference value: 81.7 +/- 0.43 %); assay type: functional
Commelina diffusa [12] = test: Herbicidal activity against Commelina diffusa in Abelmoschus esculentus plots assessed as weed recovery at 0.66 kg a.i/ha after 2 weeks (reference value: 60.1 +/- 0.46 %); assay type: functional
Corchorus olitorius [13] = test: Phytotoxicity in Corchorus olitorius assessed as root length at 0.99 kg a.i/ha treated to soil after 7 weeks (reference value: 16.9 +/- 0.09 mm); assay type: organism-based; conditions: in vivo, other, 1176 h
Abelmoschus esculentus = test: Phytotoxicity in Abelmoschus esculentus assessed as root length at 0.33 kg a.i/ha treated to soil after 7 weeks (reference value: 2.9 +/- 0.45 mm); assay type: organism-based; conditions: in vivo, other, 1176 h
Chromolaena odorata [14] = test: Herbicidal activity against Chromolaena odorata in Corchorus olitorius plots assessed as minor weed growth at 1.32 kg a.i/ha after 2 weeks; assay type: functional
Ageratum conyzoides [15] = test: Herbicidal activity against Ageratum conyzoides in Corchorus olitorius plots assessed as weed cover at 1.32 kg a.i/ha after 2 weeks (reference value: 81.7 +/- 0.43 %); assay type: functional
Asteraceae = test: Herbicidal activity against Aspilia africana in Corchorus olitorius plots assessed as weed cover at 0.66 kg a.i/ha after 2 weeks (reference value: 81.7 +/- 0.43 %); assay type: functional
Synedrella nodiflora [16] = test: Herbicidal activity against Synedrella nodiflora in Corchorus olitorius plots assessed as major weed growth at 0.33 kg a.i/ha after 2 weeks; assay type: functional
Cyperus rotundus = test: Herbicidal activity against Cyperus rotundus in Abelmoschus esculentus plots assessed as weed recovery at 0.66 kg a.i/ha after 2 weeks (reference value: 60.1 +/- 0.46 %); assay type: functional
Euphorbia heterophylla [17] = test: Herbicidal activity against Euphorbia heterophylla in Corchorus olitorius plots assessed as weed cover at 0.33 kg a.i/ha after 2 weeks (reference value: 81.7 +/- 0.43 %); assay type: functional
Ageratum conyzoides [18] = test: Herbicidal activity against Ageratum conyzoides in Abelmoschus esculentus plots assessed as weed recovery at 1.32 kg a.i/ha after 2 weeks (reference value: 60.1 +/- 0.46 %); assay type: functional
Synedrella nodiflora [19] = test: Herbicidal activity against Synedrella nodiflora in Corchorus olitorius plots assessed as weed cover at 0.33 kg a.i/ha after 2 weeks (reference value: 81.7 +/- 0.43 %); assay type: functional
Euphorbia heterophylla [20] = test: Herbicidal activity against Euphorbia heterophylla in Corchorus olitorius plots assessed as weed cover at 1.32 kg a.i/ha after 4 weeks (reference value: 20.1+/- 0.57 %); assay type: functional
Calopogonium mucunoides [21] = test: Herbicidal activity against Calopogonium mucunoides in Abelmoschus esculentus plots assessed as weed recovery at 1.32 kg a.i/ha after 2 weeks (reference value: 60.1 +/- 0.46 %); assay type: functional
Corchorus olitorius [22] = test: Phytotoxicity in Corchorus olitorius assessed as seedling emergence at 0.99 kg a.i/ha treated to soil after 7 weeks (reference value: 95 +/- 0.05 %); assay type: organism-based; conditions: in vivo, other, 1176 h
Euphorbia heterophylla [23] = test: Herbicidal activity against Euphorbia heterophylla in Corchorus olitorius plots assessed as weed recovery at 0.66 kg a.i/ha after 2 weeks (reference value: 78.3 +/- 0.74 %); assay type: functional
Corchorus olitorius [24] = test: Phytotoxicity in Corchorus olitorius assessed as seedling emergence at 1.32 kg a.i/ha treated to soil after 7 weeks (reference value: 95 +/- 0.05 %); assay type: organism-based; conditions: in vivo, other, 1176 h
Corchorus olitorius [25] = test: Phytotoxicity in Corchorus olitorius assessed as root length at 1.32 kg a.i/ha treated to soil after 7 weeks (reference value: 16.9 +/- 0.09 mm); assay type: organism-based; conditions: in vivo, other, 1176 h
Euphorbia heterophylla [26] = test: Herbicidal activity against Euphorbia heterophylla in Abelmoschus esculentus plots assessed as weed cover at 0.33 kg a.i/ha after 7 weeks (reference value: 14.7 +/- 0.46 %); assay type: functional
Corchorus olitorius [27] = test: Phytotoxicity in Corchorus olitorius assessed as shoot length at 0.33 kg a.i/ha treated to soil after 7 weeks (reference value: 23.7 +/- 0.10 mm); assay type: organism-based; conditions: in vivo, other, 1176 h
[28] = tested on: Rottboellia cochinchinensis; test: Herbicidal activity against Rottboellia cochinchinensis in Corchorus olitorius plots assessed as weed cover at 0.33 kg a.i/ha after 4 weeks (reference value: 20.1+/- 0.57 %); assay type: functional
Calopogonium mucunoides [29] = test: Herbicidal activity against Calopogonium mucunoides in Abelmoschus esculentus plots assessed as weed recovery at 0.33 kg a.i/ha after 2 weeks (reference value: 60.1 +/- 0.46 %); assay type: functional
Calopogonium mucunoides [30] = test: Herbicidal activity against Calopogonium mucunoides in Abelmoschus esculentus plots assessed as minor weed growth at 0.66 kg a.i/ha after 2 weeks; assay type: functional
Euphorbia heterophylla [31] = test: Herbicidal activity against Euphorbia heterophylla in Corchorus olitorius plots assessed as weed cover at 0.99 kg a.i/ha after 7 weeks (reference value: 1.7 +/- 0.56 %); assay type: functional
Synedrella nodiflora [32] = test: Herbicidal activity against Synedrella nodiflora in Corchorus olitorius plots assessed as weed cover at 1.32 kg a.i/ha after 2 weeks (reference value: 81.7 +/- 0.43 %); assay type: functional

Structure (SMILES): CCC(CC)Nc1c([N+](=O)[O-])cc(C)c(C)c1[N+](=O)[O-] [PENDIMETHALIN]
- Activity (Synedrella nodiflora [1]): 47.9%
- Activity (Euphorbia heterophylla [2]): 90%
- Activity (Corchorus olitorius [3]): 41.7%
- Activity (Euphorbia heterophylla [4]): 63.3%
- Activity (Corchorus olitorius [5]): 14.2 mm
- Activity (Corchorus olitorius [6]): 72.7%
- Activity (Synedrella nodiflora [7]): 33.3%
- Activity (Talinum fruticosum): 1 /m2
- Activity (Commelina diffusa [8]): 33.3%
- Activity (Chromolaena odorata [9]): 100%
- Activity (Synedrella nodiflora [10]): 95%
- Activity (Chromolaena odorata [11]): 51.7%
- Activity (Commelina diffusa [12]): 47.9%
- Activity (Corchorus olitorius [13]): 16.4 mm
- Activity (Abelmoschus esculentus): 3 mm
- Activity (Chromolaena odorata [14]): 1 /m2
- Activity (Ageratum conyzoides [15]): 41.7%
- Activity (Asteraceae): 51.7%
- Activity (Synedrella nodiflora [16]): 31 /m2
- Activity (Cyperus rotundus): 47.9%
- Activity (Euphorbia heterophylla [17]): 63.3%
- Activity (Ageratum conyzoides [18]): 33.2%
- Activity (Synedrella nodiflora [19]): 63.3%
- Activity (Euphorbia heterophylla [20]): 33.3%
- Activity (Calopogonium mucunoides [21]): 33.2%
- Activity (Corchorus olitorius [22]): 86.7%
- Activity (Euphorbia heterophylla [23]): 33.3%
- Activity (Corchorus olitorius [24]): 83.3%
- Activity (Corchorus olitorius [25]): 14.7 mm
- Activity (Euphorbia heterophylla [26]): 90%
- Activity (Corchorus olitorius [27]): 18.8 mm
- Activity [28]: 73.3%
- Activity (Calopogonium mucunoides [29]): 39.2%
- Activity (Calopogonium mucunoides [30]): 1 /m2
- Activity (Euphorbia heterophylla [31]): 95%
- Activity (Synedrella nodiflora [32]): 41.7%
